According to patent publication US9822128B1, “Substituted spirooxindoles” (KING SAUD UNIVERSITY, priority 2017, dated 2017):
Read-outs that look alike come from different tables or passages of the source.

What was measured:
Type in all cases: cell-based, human
HCT-116 cells [1] = assay: Colony forming assay; details: HCT-116, 2 μM (method) / 1 μM (result sentence), 10 days, vs DMSO control
Experimental: HCT-116 cells were seeded in 35 mm cell culture dish (500 cells/ml, 2 ml/dish). After overnight incubation at 37° C. and 5% CO2, the medium was replaced with fresh medium containing either DMSO or 2 μM of 4d. The dishes were returned into the incubator and watched for the formation of single colonies. After 10 days, the experiment was stopped by washing the colonies by ice-cold 1×-PBS and fixed with ice-cold methanol. The colonies were left to air dry, then stained with 0.5% crystal violet. The excess stain was washed off by tap water. The colonies were counted by Gx microscopes (GXMGXD202 Inverted Microscope) (10× Eyepiece) and images were processed by ImageJ 1.47v. The effect of compound 4d on the colony formation of colon cancer cells was evaluated by incubating the cells with 1 μM. […] This confirms the ability of compound 4d to enhance tumor suppressor activities.

PC-3 = assay: MTT cytotoxicity assay, prostate carcinoma cells; details: for IC50: Homo sapiens, PC-3, MTT, 48 hrs incubation
Experimental: (§1) The cytotoxic activity of the compounds was tested against different mammalian cancer cells, prostate carcinoma cells (PC-3), hepatocellular carcinoma (HepG2) and colon cancer cells (HCT-116) and against African green monkey kidney cell line (Vero-B). The cell lines were obtained from American Type Culture Collection (ATCC). The cells were cultivated at 37° C. and 10% CO2 in DMEM (Lonza, 12-604F) medium supplemented with 10% fetal bovine serum (FBS, Lonza, Cat. No. 14-801E), 100 IU/ml penicillin and 100 μg/ml streptomycin (Lonza, 17-602E). Cisplatin (cis-diamineplatinum (II) dichloride) was used as a positive control and was obtained from Sigma then dissolved in 0.9% saline then stored as 8 mM stock solution at −20° C. The synthesized compounds were solubilized in DMSO and stored at −20° C. 0.5% crystal violet was prepared in Methanol and was used to stain the viable cells (Feoktistova, Geserick et al. 2016). Crystal violet binds to proteins and DNA in the adherent and viable cells so the stain is an indicator for the viability of the treated cells. The viability of the cells were quantified by using MTT reagent (3-(4,5-dimethylthiazol-2-yl)-2,5-diphenyl tetrazolium bromide), which measure the activity of mitochondrial dehydrogenase in the viable cells (Slater, Sawyer et al. 1963, Mosmann 1983).
(§2) Cytotoxicity was further assayed as follows. The cells were seeded in 96-well plate as 5*10^4 cells/mL (100 μL/well). A serial dilutions of tested compounds or cisplatin (100, 30, 10, 3.3, 1.1 or 0.37 μM) was added after overnight incubation of the cells at 37° C. and 5% CO2. DMSO was used as a control (0.1%). The cells were incubated for 48 hrs. After that, 15 μl of MTT (5 mg/mL PBS) was added to each well and incubated for another 4 hours. The formazan crystals were solubilized by 100 μL acidified SDS solution (10% SDS/0.01 M HCl). The absorbance was measured after 14 hours of incubation at 37° C. and 5% CO2 at 570 nm by Biotech plate reader. Each experiment was repeated three times and standard deviation was calculated (±). IC50% was calculated as the concentration that cause 50% inhibition for cell growth. The growth of the cells were monitored and the images were acquired by Gx microscopes (GXMGXD202 Inverted Microscope) (10× Eyepiece) after staining with crystal violet.

HCT-116 = assay: Cell cycle analysis (propidium iodide flow cytometry); details: HCT-116, 2 μM, 24 hours
Experimental: The cells (HCT-116) were seeded 5*10^4 cells/mL in a 6-well plate (2 mL/well) and allowed to adhere overnight at 37° C. and 5% CO2. The cells were incubated with or without 2 μM of compound 4d for 24 hours. The cells were washed twice with ice-cold 1×PBS and collected after trypsinzation. The cell pellet was washed two times with ice-cold 1×PBS and fixed with ice-cold 70% ethanol overnight at −20° C. After that, the cells were washed once with ice-cold PBS and the second wash was done with ice-cold PBS-2% FBS. The cell pellet was re-suspended in 500 μL Propidium Iodide (PI)/RNase (BD Biosciences, BDB550825) staining solution for 15 min at room temperature. The samples were incubated for 15 min in the dark and analyzed within 1 hour by BD Accuri™ C6 Plus flow cytometer. […] The arrest of the cell cycle in subG1 indicates the induction of apoptosis.

HCT-116 cells [2] = assay: Induction of apoptosis (annexin-V / 7-AAD flow cytometry)
Experimental: The HCT-116 cells were seeded at 5*10^4 cells/mL density in a 6-well plate. The cells were treated with 2 μM 4d for 48 hrs, and the cells were collected after trypsin enzyme treatment and washed two times with ice-cold 1×PBS. The cells were incubated for 2 hours at 4° C. in PBS, then centrifuged and re-suspended in 1× binding buffer. Then 5 μL PE annexin-V and 5 μL 7-amino-actinomycin D (7-AAD) were added to 100 μL of cell suspension and incubated for 15 min at RT in the dark, and then 400 μL of 1× binding buffer was added to the cell suspension and analyzed within 1 hour by BD Accuri™ C6 Plus flow cytometer. The following controls were used to set up the machine: cells unstained with PE annexin V and 7-AAD, cells stained with PE annexin V only, cells stained with 7-AAD only. The level of apoptotic cells, whether in early (+ve annexin-V and −ve PI) or late stage (+ve Annexin-V and +ve PI), was determined. […] The results are shown in FIG. 5A (untreated cells) and FIG. 5B (treated with just 1 μM of compound 4d for 24 hours).

HepG2 = assay: MTT cytotoxicity assay, hepatocellular carcinoma cells; details: for IC50: Homo sapiens, HepG2, MTT, 48 hrs incubation
Experimental: as §1, §2

**Q.** How did the formation of colonies (HCT-116 cells [1]) turn out when `O=C(/C=C/c1ccc(Cl)cc1Cl)[C@H]1[C@H](c2ccc(Cl)cc2Cl)[C@H]2CSCN2[C@]12C(=O)Nc1ccccc12` [Compound 4d, (3R,6′S,7′R,7a′S)-7′-(2,4-dichlorophenyl)-6′-((E)-3-(2,4-dichlorophenyl)acryloyl)-1′,6′,7′,7a′-tetrahydro-3′H-spiro[indoline-3,5′-pyrrolo[1,2-c]thiazol]-2-one] was run?
**A.** able to inhibit the formation of colonies

**Q.** And the IC50 (PC-3; read-out: PC-3 (IC50% μM))?
**A.** 1.8 ± 0.3 µM

**Q.** And the IC50 (PC-3; read-out: PC-3 (IC50% μg/ml))?
**A.** 1.1 µg/mL

**Q.** What about the SI (PC-3; Selectivity Index from IC50 normal (VERO-B) and IC50 cancer (PC-3)) of the same molecule?
**A.** 2.778

**Q.** And the “cells arrested in G2/M” value (HCT-116)?
**A.** around 34.5%

**Q.** And the “cells arrested in subG1” value (HCT-116)?
**A.** ~15.5%

**Q.** And the induction of apoptosis (HCT-116 cells [2]; HCT-116, 1 μM, 24 hours)?
**A.** could induce the apoptosis

**Q.** What about the apoptotic cells (HCT-116 cells [2]; HCT-116, 2 μM, 48 hours) of the same molecule?
**A.** greatly increased the apoptotic cells

**Q.** What about the IC50 (HepG2; read-out: HepG2 (IC50% μM)) of the same molecule?
**A.** 0.85 ± 0.2 µM

**Q.** And the IC50 (HepG2; read-out: HepG2 (IC50% μg/ml))?
**A.** 0.5 µg/mL

**Q.** And the SI (HepG2; Selectivity Index from IC50 normal (VERO-B) and IC50 cancer (HepG2))?
**A.** 5.882
